{
  "source": "patent US11639350B2",
  "about": "“Heteroaryldihydropyrimidine derivatives and methods of treating hepatitis B infections” (Janssen Pharmaceutica NV, priority 2018, dated 2023)",
  "key": {"[1]": {"tested_on": "HBV", "assay": "HBV inhibitory activity: HBV DNA in the culture medium of HepG2.2.15 cells by q-PCR", "format": "cell-based", "conditions": "HepG2.2.15 cells, 6 days of compound treatment, HBV DNA in culture medium by q-PCR, highest concentration 10 μM, read-out: EC50", "method_in_brief": "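HepG2.2.15 cells in 2% FBS medium, 40,000 per well, treated 6 days with compound (medium refreshed once), eight 3-fold dilutions from 10 μM top. HBV DNA extracted from culture medium and quantified by q-PCR; EC50 averaged over repeats. Cytotoxicity run in parallel at 5,000 cells per well, top 100 μM, giving CC50.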"}, "[2]": {"assay": "Cytotoxicity determination in HepG2.2.15 cells (CCK-8)", "format": "cell-based", "conditions": "human, 6 days of compound treatment, CCK-8, highest concentration 100 μM", "method_in_brief": "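HepG2.2.15 cells seeded at 5,000 cells/well in 2% FBS medium, incubated overnight at 37° C., then treated 6 days with compounds (8 points, 3-fold dilutions, top 100 μM), medium refreshed once midway. CCK-8 added for 2.5 h; A450 read against 630 nm reference; CC50 calculated, averaged over repeats.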"}, "[3]": {"conditions": "Hepatitis B virus, HepG2.2.15, 144 h"}},
  "note": "Where two headings read alike, the source gives them in different places.",
  "data": [
    {"smiles": "COC(=O)C1=C(C2CCCCO2)NC(c2nccs2)=NC1c1ccc(F)cc1Cl", "note": "(single isomer, unassigned) [Compound 49C, Methyl 4-(2-chloro-4-fluorophenyl)-6-(tetrahydro-2H-pyran-2-yl)-2-(thiazol-2-yl)-1,4-dihydropyrimidine-5-carboxylate]", "values": [
      {"measurement": "EC50", "setting": "[1]; [3]", "value": 202, "unit": "nM"},
      {"measurement": "CC50 at 6 days", "setting": "[2]", "value": 84600, "unit": "nM"}
    ]},
    {"smiles": "COC(=O)C1=C(C2CCN(S(C)(=N)=O)CC2)NC(c2nccs2)=NC1c1ccc(F)cc1Cl", "note": "(single isomer, unassigned) [Compound 401Y, Methyl 4-(2-chloro-4-fluorophenyl)-6-(1-(S-methylsulfonimidoyl)piperidin-4-yl)-2-(thiazol-2-yl)-1,4-dihydropyrimidine-5-carboxylate]", "values": [
      {"measurement": "EC50", "setting": "[1]; [3]", "value": 24, "unit": "nM"},
      {"measurement": "CC50 at 6 days", "setting": "[2]", "value": 60000, "unit": "nM"}
    ]},
    {"smiles": "COC(=O)C1=C(C2CCN(S(=O)(=O)c3cccc(C(=O)O)c3)CC2)NC(c2nccs2)=NC1c1cccc(F)c1Cl", "note": "(stereo not drawn) [Compound 118, 3-((4-(6-(2-Chloro-3-fluorophenyl)-5-(methoxycarbonyl)-2-(thiazol-2-yl)-3,6-dihydropyrimidin-4-yl)piperidin-1-yl)sulfonyl)benzoic Acid]", "values": [
      {"measurement": "EC50", "setting": "[1]; [3]", "value": 15, "unit": "nM"},
      {"measurement": "CC50 at 6 days", "setting": "[2]", "value": 59100, "unit": "nM"}
    ]},
    {"smiles": "CCOC(=O)C1=C(C2CCN(S(C)(=O)=O)CC2)NC(c2nccs2)=NC1c1cccc(F)c1Cl", "note": "(stereo not drawn) [Compound 96B, Ethyl 4-(2-chloro-3-fluorophenyl)-6-(1-(methylsulfonyl)piperidin-4-yl)-2-(thiazol-2-yl)-1,4-dihydropyrimidine-5-carboxylate]", "values": [
      {"measurement": "EC50", "setting": "[1]; [3]", "value": 130, "unit": "nM"},
      {"measurement": "CC50 at 6 days", "setting": "[2]", "value": 21200, "unit": "nM"}
    ]},
    {"smiles": "COC(=O)C1=C(C23CC(C(C)O)(C2)C3)NC(c2nccs2)=NC1c1ccc(F)cc1Cl", "note": "(stereo not drawn) [Compound 348B, Methyl 4-(2-chloro-4-fluorophenyl)-6-(3-(1-hydroxyethyl)bicyclo[1.1.1]pentan-1-yl)-2-(thiazol-2-yl)-1,4-dihydropyrimidine-5-carboxylate]", "values": [
      {"measurement": "EC50", "setting": "[1]; [3]", "value": 63, "unit": "nM"},
      {"measurement": "CC50 at 6 days", "setting": "[2]", "value": 25000, "unit": "nM"}
    ]},
    {"smiles": "COC(=O)C1=C(C2CCN(S(=O)(=O)C3COC3)CC2)NC(c2nccs2)=NC1c1ccc(F)cc1Cl", "note": "(single isomer, unassigned) [Compound 110B, Methyl 4-(2-chloro-4-fluorophenyl)-6-(1-(oxetan-3-ylsulfonyl)-piperidin-4-yl)-2-(thiazol-2-yl)-1,4-dihydropyrimidine-5-carboxylate]", "values": [
      {"measurement": "EC50", "setting": "[1]; [3]", "value": 798, "unit": "nM"},
      {"measurement": "CC50 at 6 days", "setting": "[2]", "value": "> 10000", "unit": "nM"}
    ]},
    {"smiles": "CCOC(=O)C1=C(C2[C@H]3CN(S(C)(=O)=O)C[C@@H]23)NC(c2nccs2)=NC1c1ccc(F)cc1Cl", "note": "(single isomer, unassigned) [Compound 41A]", "values": [
      {"measurement": "EC50", "setting": "[1]; [3]", "value": 514, "unit": "nM"},
      {"measurement": "CC50 at 6 days", "setting": "[2]", "value": 11600, "unit": "nM"}
    ]},
    {"smiles": "CCOC(=O)C1=C(C2CCN(S(=O)(=O)c3cnn(CCCCCC(=O)O)c3)CC2)NC(c2nccs2)=NC1c1ccc(F)c(F)c1Cl", "note": "(stereo not drawn) [Compound 462, 6-(4-((4-(6-(2-Chloro-3,4-difluorophenyl)-5-(ethoxycarbonyl)-2-(thiazol-2-yl)-3,6-dihydropyrimidin-4-yl)piperidin-1-yl)sulfonyl)-1H-pyrazol-1-yl)hexanoic Acid]", "values": [
      {"measurement": "EC50", "setting": "[1]; [3]", "value": 24, "unit": "nM"},
      {"measurement": "CC50 at 6 days", "setting": "[2]", "value": 6600, "unit": "nM"}
    ]},
    {"smiles": "COC(=O)C1=C(C2CCN(S(=O)(=O)CC(C)(C)C(=O)O)CC2)NC(c2nccs2)=NC1c1ccc(F)cc1Cl", "note": "(stereo not drawn) [Compound 223, 3-((4-(6-(2-Chloro-4-fluorophenyl)-5-(methoxycarbonyl)-2-(thiazol-2-yl)-3,6-dihydropyrimidin-4-yl)piperidin-1-yl)sulfonyl)-2,2-dimethylpropanoic Acid]", "values": [
      {"measurement": "EC50", "setting": "[1]; [3]", "value": 145, "unit": "nM"},
      {"measurement": "CC50 at 6 days", "setting": "[2]", "value": 50000, "unit": "nM"}
    ]},
    {"smiles": "CCOC(=O)C1=C(C2CCN(S(=O)(=O)[C@H]3C[C@H](C(=O)O)C3)CC2)NC(c2nccs2)=NC1c1ccc(F)c(F)c1Br", "note": "(stereo partly drawn) [Compound 199A, (trans)-3-((4-(6-(2-bromo-3,4-difluorophenyl)-5-(ethoxycarbonyl)-2-(thiazol-2-yl)-3,6-dihydropyrimidin-4-yl)piperidin-1-yl)sulfonyl)cyclobutanecarboxylic Acid]", "values": [
      {"measurement": "EC50", "setting": "[1]; [3]", "value": 56, "unit": "nM"},
      {"measurement": "CC50 at 6 days", "setting": "[2]", "value": 35800, "unit": "nM"}
    ]},
    {"smiles": "COC(=O)C1=C(C2CCN(S(=O)(=O)[C@H]3C[C@@H](C(=O)O)C3)CC2)NC(c2nccs2)=NC1c1ccc(F)c(F)c1Cl", "note": "(relative stereo) [Compound 232D, (cis)-3-((4-(−6-(2-Chloro-3,4-difluorophenyl)-5-(methoxycarbonyl)-2-(thiazol-2-yl)-3,6-dihydropyrimidin-4-yl)piperidin-1-yl)sulfonyl)cyclobutanecarboxylic Acid]", "values": [
      {"measurement": "EC50", "setting": "[1]; [3]", "value": 30, "unit": "nM"},
      {"measurement": "CC50 at 6 days", "setting": "[2]", "value": 39600, "unit": "nM"}
    ]},
    {"smiles": "COC(=O)C1=C([C@H]2CC[C@@H](S(=O)(=O)N(C)C)CC2)NC(c2nccs2)=NC1c1ccc(F)c(F)c1Cl", "note": "(single isomer, unassigned) [Compound 233B, (cis)-Methyl 4-(2-chloro-3,4-difluorophenyl)-6-(4-(N,N-dimethylsulfamoyl)cyclohexyl)-2-(thiazol-2-yl)-1,4-dihydropyrimidine-5-carboxylate]", "values": [
      {"measurement": "EC50", "setting": "[1]; [3]", "value": 56, "unit": "nM"},
      {"measurement": "CC50 at 6 days", "setting": "[2]", "value": 6300, "unit": "nM"}
    ]},
    {"smiles": "COC(=O)C1=C(C2CCN(S(=O)(=O)c3cn(C)cn3)CC2)NC(c2nccs2)=NC1c1ccc(F)cc1Cl", "note": "(stereo not drawn) [Compound 201A, Methyl 4-(2-chloro-4-fluorophenyl)-6-(1-((1-methyl-1H-imidazol-4-yl)sulfonyl)piperidin-4-yl)-2-(thiazol-2-yl)-1,4-dihydropyrimidine-5-carboxylate]", "values": [
      {"measurement": "EC50", "setting": "[1]; [3]", "value": 53, "unit": "nM"},
      {"measurement": "CC50 at 6 days", "setting": "[2]", "value": 15700, "unit": "nM"}
    ]},
    {"smiles": "CCOC(=O)C1=C(C2CCN(S(=O)(=O)[C@H]3C[C@H](C(=O)O)C3)CC2)NC(c2nccs2)=NC1c1cccc(F)c1Br", "note": "(relative stereo) [Compound 339B, (trans)-3-((4-(6-(2-Bromo-3-fluorophenyl)-5-(ethoxycarbonyl)-2-(thiazol-2-yl)-3,6-dihydropyrimidin-4-yl)piperidin-1-yl)sulfonyl)cyclobutanecarboxylic Acid]", "values": [
      {"measurement": "EC50", "setting": "[1]; [3]", "value": 10, "unit": "nM"},
      {"measurement": "CC50 at 6 days", "setting": "[2]", "value": 13400, "unit": "nM"}
    ]},
    {"smiles": "CCOC(=O)C1=C(C2CCN(S(=O)(=O)C3CC(C)(C(=O)O)C3)CC2)NC(c2nccs2)=NC1c1ccc(F)cc1C", "note": "(stereo not drawn) [Compound 420A, (trans)-3-((4-(5-(Ethoxycarbonyl)-6-(4-fluoro-2-methylphenyl)-2-(thiazol-2-yl)-3,6-dihydropyrimidin-4-yl)piperidin-1-yl)sulfonyl)-1-methylcyclobutanecarboxylic Acid]", "values": [
      {"measurement": "EC50", "setting": "[1]; [3]", "value": 76, "unit": "nM"},
      {"measurement": "CC50 at 6 days", "setting": "[2]", "value": 20800, "unit": "nM"}
    ]},
    {"smiles": "COC(=O)C1=C(C2CCN(S(C)(=O)=O)CC2)NC(c2nccs2)=NC1c1ccc(F)cc1Br", "note": "(single isomer, unassigned) [Compound 120A, Methyl 4-(2-bromo-4-fluorophenyl)-6-(1-(methylsulfonyl)-piperidin-4-yl)-2-(thiazol-2-yl)-1,4-dihydropyrimidine-5-carboxylate]", "values": [
      {"measurement": "EC50", "setting": "[1]", "value": 350, "unit": "nM"},
      {"measurement": "CC50 at 6 days", "setting": "[2]", "value": 31700, "unit": "nM"}
    ]},
    {"smiles": "COC(=O)C1=C([C@H]2CC[C@H](N(CCCO)S(C)(=O)=O)CC2)NC(c2nccs2)=NC1c1ccc(F)cc1Cl", "note": "(single isomer, unassigned) [Compound 431B, (trans)-Methyl 4-(2-chloro-4-fluorophenyl)-6-(4-(N-(3-hydroxypropyl)methylsulfonamido)cyclohexyl)-2-(thiazol-2-yl)-1,4-dihydropyrimidine-5-carboxylate]", "values": [
      {"measurement": "EC50", "setting": "[1]; [3]", "value": 52, "unit": "nM"},
      {"measurement": "CC50 at 6 days", "setting": "[2]", "value": 28100, "unit": "nM"}
    ]},
    {"smiles": "COC(=O)C1=C(C2CCN(S(=O)(=O)c3cnn(Cc4ncco4)c3)CC2)NC(c2nccs2)=NC1c1ccc(F)c(F)c1Cl", "note": "(stereo not drawn) [Compound 465, Methyl 4-(2-chloro-3,4-difluorophenyl)-6-(1-((1-(oxazol-2-ylmethyl)-1H-pyrazol-4-yl)sulfonyl)piperidin-4-yl)-2-(thiazol-2-yl)-1,4-dihydropyrimidine-5-carboxylate]", "values": [
      {"measurement": "EC50", "setting": "[1]; [3]", "value": 9, "unit": "nM"},
      {"measurement": "CC50 at 6 days", "setting": "[2]", "value": 35200, "unit": "nM"}
    ]}
  ]
}
